The source made the active and inactive calls. Cut-off read from the data, not from the text of the source, for most assays here: actives have a measured Kd and inactives only a lower limit.
Key:
[1] = biological target: T1, Serine/threonine-protein kinase ULK1 (Homo sapiens, UniProt O75385)
T1 sequence (O75385 whole entry): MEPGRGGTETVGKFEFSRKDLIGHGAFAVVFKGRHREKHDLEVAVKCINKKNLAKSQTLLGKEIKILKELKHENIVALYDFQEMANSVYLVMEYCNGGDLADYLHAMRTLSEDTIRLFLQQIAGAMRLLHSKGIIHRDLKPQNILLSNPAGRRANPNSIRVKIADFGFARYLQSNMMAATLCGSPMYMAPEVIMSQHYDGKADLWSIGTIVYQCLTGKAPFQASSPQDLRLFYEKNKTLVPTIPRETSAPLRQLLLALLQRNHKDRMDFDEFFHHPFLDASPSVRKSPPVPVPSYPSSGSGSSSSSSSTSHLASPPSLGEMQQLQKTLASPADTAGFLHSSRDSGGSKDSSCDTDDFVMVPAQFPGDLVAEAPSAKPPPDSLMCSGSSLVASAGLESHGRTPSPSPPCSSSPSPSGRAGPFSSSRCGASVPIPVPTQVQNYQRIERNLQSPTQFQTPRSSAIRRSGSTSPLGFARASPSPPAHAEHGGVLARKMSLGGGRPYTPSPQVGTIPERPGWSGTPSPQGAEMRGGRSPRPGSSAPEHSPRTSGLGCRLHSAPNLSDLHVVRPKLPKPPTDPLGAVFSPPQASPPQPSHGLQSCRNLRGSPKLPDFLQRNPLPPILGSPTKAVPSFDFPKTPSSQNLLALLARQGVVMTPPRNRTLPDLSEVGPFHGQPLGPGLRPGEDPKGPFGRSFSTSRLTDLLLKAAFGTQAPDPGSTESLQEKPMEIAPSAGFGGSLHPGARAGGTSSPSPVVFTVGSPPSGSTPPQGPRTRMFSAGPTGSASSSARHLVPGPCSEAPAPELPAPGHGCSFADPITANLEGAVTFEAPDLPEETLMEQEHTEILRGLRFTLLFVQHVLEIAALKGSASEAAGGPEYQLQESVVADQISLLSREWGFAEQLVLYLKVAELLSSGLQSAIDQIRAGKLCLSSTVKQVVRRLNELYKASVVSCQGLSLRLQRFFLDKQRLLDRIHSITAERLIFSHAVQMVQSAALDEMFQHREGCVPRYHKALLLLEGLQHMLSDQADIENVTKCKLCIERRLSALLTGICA

[2] = biological target: T2, Dual specificity mitogen-activated protein kinase kinase 5 (Homo sapiens, UniProt Q13163)
T2 sequence (Q13163 whole entry): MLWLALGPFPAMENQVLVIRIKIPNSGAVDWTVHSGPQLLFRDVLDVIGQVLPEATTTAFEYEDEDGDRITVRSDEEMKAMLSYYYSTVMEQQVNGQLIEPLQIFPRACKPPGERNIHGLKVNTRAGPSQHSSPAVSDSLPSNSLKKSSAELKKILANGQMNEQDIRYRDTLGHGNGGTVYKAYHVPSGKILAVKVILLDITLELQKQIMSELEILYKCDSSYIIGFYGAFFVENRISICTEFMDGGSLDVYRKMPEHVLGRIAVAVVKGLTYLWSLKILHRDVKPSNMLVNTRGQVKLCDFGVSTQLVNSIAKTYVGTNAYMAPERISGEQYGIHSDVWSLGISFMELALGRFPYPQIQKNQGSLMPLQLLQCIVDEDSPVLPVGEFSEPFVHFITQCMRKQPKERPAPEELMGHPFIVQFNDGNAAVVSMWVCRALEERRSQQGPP

[3] = biological target: T3, ATP-dependent RNA helicase DDX42 (Homo sapiens, UniProt Q86XP3)
T3 sequence (Q86XP3 whole entry): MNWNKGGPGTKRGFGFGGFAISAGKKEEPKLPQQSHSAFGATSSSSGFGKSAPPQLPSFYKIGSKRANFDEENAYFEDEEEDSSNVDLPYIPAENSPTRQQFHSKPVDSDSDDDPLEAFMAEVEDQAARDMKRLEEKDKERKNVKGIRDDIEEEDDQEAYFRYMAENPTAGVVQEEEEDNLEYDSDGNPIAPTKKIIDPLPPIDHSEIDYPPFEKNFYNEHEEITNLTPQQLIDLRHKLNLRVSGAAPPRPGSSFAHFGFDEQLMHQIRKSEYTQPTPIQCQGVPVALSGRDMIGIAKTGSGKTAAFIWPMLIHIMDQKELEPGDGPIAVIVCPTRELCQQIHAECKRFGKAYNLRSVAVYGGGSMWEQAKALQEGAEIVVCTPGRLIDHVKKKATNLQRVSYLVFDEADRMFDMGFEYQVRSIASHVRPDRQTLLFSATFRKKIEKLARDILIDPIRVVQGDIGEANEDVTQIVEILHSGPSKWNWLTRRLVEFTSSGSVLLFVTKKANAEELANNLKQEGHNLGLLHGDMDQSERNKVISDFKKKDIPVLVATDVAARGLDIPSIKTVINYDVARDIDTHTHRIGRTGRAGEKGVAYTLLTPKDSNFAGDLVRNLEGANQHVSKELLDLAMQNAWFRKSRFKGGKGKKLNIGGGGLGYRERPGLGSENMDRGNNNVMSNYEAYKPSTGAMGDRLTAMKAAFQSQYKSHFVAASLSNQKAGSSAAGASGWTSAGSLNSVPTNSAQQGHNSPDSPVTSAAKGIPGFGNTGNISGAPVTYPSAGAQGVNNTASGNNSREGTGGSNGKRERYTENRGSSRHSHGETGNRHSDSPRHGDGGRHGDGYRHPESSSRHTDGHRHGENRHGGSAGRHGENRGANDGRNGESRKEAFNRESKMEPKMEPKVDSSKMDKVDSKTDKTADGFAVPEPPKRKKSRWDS

Activin receptor type-1B = biological target: T4, Activin receptor type-1B (Homo sapiens, UniProt P36896)
T4 sequence (P36896 whole entry): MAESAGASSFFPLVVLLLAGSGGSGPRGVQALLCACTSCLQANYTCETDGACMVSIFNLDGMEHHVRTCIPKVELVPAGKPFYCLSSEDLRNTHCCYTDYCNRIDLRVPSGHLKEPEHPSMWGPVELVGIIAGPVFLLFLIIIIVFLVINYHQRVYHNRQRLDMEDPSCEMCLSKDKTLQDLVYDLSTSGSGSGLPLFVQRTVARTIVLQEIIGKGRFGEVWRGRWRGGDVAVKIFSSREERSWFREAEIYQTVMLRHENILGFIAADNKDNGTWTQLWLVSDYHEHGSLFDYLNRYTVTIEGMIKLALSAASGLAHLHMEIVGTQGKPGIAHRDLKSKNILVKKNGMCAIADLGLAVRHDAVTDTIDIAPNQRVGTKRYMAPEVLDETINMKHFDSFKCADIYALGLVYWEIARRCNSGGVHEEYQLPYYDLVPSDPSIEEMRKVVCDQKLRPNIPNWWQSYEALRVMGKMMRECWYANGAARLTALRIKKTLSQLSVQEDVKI

Measured: Kd
Note: in the data inactive means no Kd found up to 30 µM.

Cc1cc2c(F)c(Oc3ncnn4cc(OC[C@@H](C)OC(=O)[C@H](C)N)c(C)c34)ccc2[nH]1 [BRIVANIB ALANINATE]
inactive: [1] > 30 µM | [2] > 30 µM | [3] > 30 µM | Activin receptor type-1B > 30 µM

Cc1ccc(-n2nc(C(C)(C)C)cc2NC(=O)NCc2cc(F)ccc2Oc2ccc3c(cnn3CCO)c2)cc1 [PEXMETINIB]
inactive: [1] > 30 µM | [2] > 30 µM | [3] > 30 µM | Activin receptor type-1B > 30 µM

Cn1cc(-c2ccc(F)c(C(F)(F)F)c2)nc1C1CCN(c2ncnc3[nH]ncc23)CC1 [LY-2584702]
inactive: [1] > 30 µM | [2] > 30 µM | [3] > 30 µM | Activin receptor type-1B > 30 µM

CC[C@H](Nc1ncnc2[nH]cnc12)c1nc2cccc(F)c2c(=O)n1-c1ccccc1 [IDELALISIB]
inactive: [1] > 30 µM | [2] > 30 µM | [3] > 30 µM | Activin receptor type-1B > 30 µM

CNC(=O)c1cc(Oc2ccc(NC(=O)Nc3ccc(Cl)c(C(F)(F)F)c3)c(F)c2)ccn1 [REGORAFENIB]
inactive: [1] > 30 µM | [2] > 30 µM | [3] > 30 µM | Activin receptor type-1B > 30 µM

CN1N=C(N)c2cn([C@@H]3O[C@H](COP(=O)(O)O)[C@@H](O)[C@H]3O)c3ncnc1c23 [TRICIRIBINE PHOSPHATE]
inactive: [1] > 30 µM | [2] > 30 µM | [3] > 30 µM | Activin receptor type-1B > 30 µM

OCCn1cc(-c2cnc3nnn(Cc4ccc5ncccc5c4)c3n2)cn1 [PF-04217903]
inactive: [1] > 30 µM | [2] > 30 µM | [3] > 30 µM | Activin receptor type-1B > 30 µM

CN1CCC(CNc2ccc3ncc(-c4cccc(OC(F)(F)F)c4)n3n2)CC1 [SGI-1776]
inactive: [1] > 30 µM | [2] > 30 µM | [3] > 30 µM | Activin receptor type-1B > 30 µM

CC(C)Nc1cc(-c2c[nH]c(C(=O)N[C@H](CO)c3cccc(Cl)c3)c2)c(Cl)cn1 [ULIXERTINIB]
inactive: [1] > 30 µM | [2] > 30 µM | [3] > 30 µM | Activin receptor type-1B > 30 µM

CC[C@@H]1C(=O)N(C)c2cnc(Nc3ccc(C(=O)N[C@H]4CC[C@H](N5CCN(CC6CC6)CC5)CC4)cc3OC)nc2N1C(C)C [VOLASERTIB]
inactive: [1] > 30 µM | [2] > 30 µM | [3] > 30 µM | Activin receptor type-1B > 30 µM

O=C(Nc1cccc(Cl)c1)Nc1ncc(CCNc2ncnc3ccsc23)s1 [SNS-314]
inactive: [1] > 30 µM | [2] > 30 µM | [3] > 30 µM | Activin receptor type-1B > 30 µM

From ChEMBL document CHEMBL3991601, “The target landscape of clinical kinase drugs” (Science, 2017)
